Data as given in paper PMC10082216 (Nature Communications, 2023).
Counter-ions that a name gives are not always drawn. Like-named read-outs stand apart in the source and are kept apart here.

Legend:
[1] = test system: mature stage V gametocytes (NF54 strain); experiment: microbe, parasite or virus in culture; type: cell-based, Plasmodium falciparum; details: for outcome of primary screen (hit definition): 1.11 µM
Method: (§1) Screening was conducted as previously described. Briefly, mature stage V gametocytes (NF54 strain) were cultured in vitro, then exposed to the explored compounds and filtered thereafter through layers of microspheres (microsphiltration)[25],[28]. Stiffening activity was determined by comparing gametocytemia up and downstream from the microsphere layers after filtration of drug-exposed gametocytes in 384-well plates using a vacuum manifold. Gametocytemia was assessed using DNA (Sybr Green) and erythrocyte membrane (CellMask) staining. Killing effect was assessed by MitoTracker staining. We screened two small libraries, specifically the Pathogen Box from the Medicine for Malaria Venture and the Kinase Inhibitors Box from GSK (400 and 350 compounds, respectively, Fig. 1A, B), and furthermore the larger ReFrame repurposing library (12,805 compounds, Fig. 1C).
(§2) The Pathogen Box library (400 compounds, provided by MMV-Medicine for Malaria Ventures, Geneva, Switzerland), the Kinase Inhibitors Box library (350 compounds, provided by GSK-Glaxo SmithKline DDW Unit, Tres Cantos, Spain), and the ReFrame library (12,805 compounds provided by the California Institute for Biomedical Research-Calibr, La Jolla, CA, USA) were used according to the providers’ instructions. DMSO-solubilized compounds (10 mM stock concentration) were loaded in 384-well plates (Seahorse, cat. no. 201035−100). Two columns were left empty for the controls. For each compound, 5 nL were pre-spotted in a single well to reach a final concentration of 1.11 μM. The final volume for each well was 45 μl. Controls were prepared as follows: 22.5 nL of DMSO were loaded in 16 wells as negative controls (0.05% final concentration); 22.5 nL of NITD609 (provided by MMV, Geneva, Switzerland) 1 mM were loaded in 8 wells (0.5 μM final concentration), 17 nL of Calyculin A (Sigma, cat. no. C5552) […] were loaded in 6 wells (75 nM final concentration) and 225 nL of Gentian Violet (MolPort, cat. no. 002-133-551) 10 mM were loaded in the remaining 2 wells (50 μM final concentration). Plates were prepared in triplicate for the Pathogen Box and sextuplicate for the Kinase Inhibitors Box.
(§3) Plasmodium falciparum NF54 strain parasites (used for screening campaign) were cultured at 4% hematocrit in RBCs from informed blood donors (blood group A) as previously described. Parasites were taken from the -80 °C freezer, then rapidly melt for 1 minute in a 37 °C water bath. A saline solution was gently added to avoid the lysis. Firstly, NaCl dissolved at 12% in distilled water (1/5 of the volume measured in the cryovial) and then NaCl dissolved at 1.6% (9 times the cryovial’s volume). After that, fresh RBCs were added to allow parasites re-growth. Infected RBCs were kept in RPMI medium (Sigma-Aldrich, cat. no. R4130), supplemented with 10% of decomplemented human serum, hypoxanthine 50 mg/l (Sigma-Aldrich, cat. no. H9636). Biobank of Castilla y Leon and Centro de Transfusiones de Madrid as providers of human red blood cell concentrates. The production of gametocytes was induced from a 0.5% ring-stage parasitemia (day 0). Medium was changed daily to induce gametocytes differentiation, as previously described. At day 17, gametocytes were concentrated using a density gradient medium (NycoPrep 1.077, Progen cat. no. 1114550)[27]. Parasitemia was adjusted by FACS (SYBR-Green and MitoTracker double staining, 3–5% targeted). Hematocrit was adjusted to 0.5% by adding fresh RBCs and controlled by manual counting in a Neubauer chamber (Celeromics, cat. no. 717810). Finally, the gametocyte suspension was poured (45 μL/well) into the compound-containing 384-well microplate, then incubated 24 hours both for the screening campaign and the dose-response analysis. Both asexual and sexual stages were cultivated in RPMI 1640 supplemented with 25 mM HEPES, 50 mg/L hypoxanthine, 50 μg/mL gentami-cin, 10% pooled heat-inactivated human serum (A^+).

[2] = test system: mature stage V gametocytes (NF54 strain); experiment: High-throughput screening: killing effect by MitoTracker staining, primary screening at 1.11 µM and dose-response analysis; type: cell-based, Plasmodium falciparum; details: for IC50: stage V gametocytes NF54, 24 h, dose-response analysis, N/A = not active in dose-response analysis, read-out: Killing IC50
Method: as §1, §2, §3

[3] = Hit scoring on safety in human subjects and pharmacokinetics; details: for Score (PK): peak plasma concentration vs IC50
Excerpt: Hits from the ReFrame library were further selected based on safety, preferably oral administration (high score if oral), and potential availability for widespread use.

[4] = Plasmodium falciparum, NF54, 24 h, read-out: Stiffening IC50 (retention)
[5] = Plasmodium falciparum, NF54, 24 h
[6] = stage V gametocytes NF54, 24 h, dose-response analysis, N/A = not active in dose-response analysis, read-out: Stiffening IC50 (retention)

## CCCN1CCCC(c2ccc(Nc3nc(Nc4cc(F)ccc4C(N)=O)c4cc[nH]c4n3)c(OC)c2)C1 (stereo not shown) [GSK1173862A]
[1]; [4]
  IC50: 345 nM
[2]; [5]
  IC50: 2.4 µM

## Eseroline
[1]; [6]
  IC50: 2300 nM
[2]
  IC50: 1.56 µM

## CN(C)c1ccc2nc3ccc(=[N+](C)C)cc-3sc2c1 [Methylthioninium chloride]
[1]; Plasmodium falciparum, NF54, 24 h, read-out: Stiffening IC50 (retention), stage V gametocytes NF54, 24 h, dose-response analysis, N/A = not active in dose-response analysis
  IC50: 2800 nM
[2]; [5]
  IC50: 4.85 µM

## CC(C)NC(=N)NC(=N)Nc1ccc(Cl)c(Cl)c1.Cl [Chlorproguanil hydrochloride]
[3]
  Score (safety): 0
  Score (PK): 1 (Peak plasma concentration lower than 1/3 IC50 (Score = 1))
[1]; [6]
  IC50: 10400 nM

## O=C([O-])[C@H]([O-])[C@@H]([O-])C(=O)[O-].O=C([O-])[C@H]([O-])[C@@H]([O-])C(=O)[O-].[K+].[K+].[Sb+3].[Sb+3] [Potassium antimonyl tartrate]
[1]; [6]
  IC50: 10700 nM
[2]
  IC50: 3.63 µM

## COCCn1c2c([n+](Cc3cnccn3)c1C)C(=O)c1ccccc1C2=O [Sepantronium bromide]
[1]; [4]
  IC50: 1890 nM
[2]; [5]
  IC50: 1.35 µM

## COC1=C(OC)C(=O)C(CCCCCCCCCC[P+](c2ccccc2)(c2ccccc2)c2ccccc2)=C(C)C1=O [Mitoquinone mesylate]
[3]; human
  Score (safety): 3
[3]
  Score (PK): 1 (Peak plasma concentration lower than 1/3 IC50 (Score = 1))
[1]; [4]
  IC50: 12100 nM
[2]; [5]
  IC50: 11.7 µM

## CC[C@H]1/C=C/C=C/C[C@@H](C)[C@H](O)[C@@](C)(O)C(=O)[C@@H](C)[C@H](O)[C@@H](C)C(=O)[C@@H](C)[C@H](O)[C@@H](C)/C=C/C(=O)O[C@@H]2[C@H](C)[C@H](CC1)O[C@@]1(O[C@@H](C[C@@H](C)O)[C@@H](C)CC1=O)[C@H]2C [Oligomycin B]
[1]; [6]
  IC50: 1550 nM
[2]
  IC50: 5.8 µM

## CCCCN(CCCC)c1ccc2nc3ccc(=[N+](CCCC)CCCC)cc-3sc2c1 [PPA904]
[1]; [6]
  IC50: 5050 nM
[2]
  IC50: 2.42 µM

## CCCc1nn(C)c2c(=O)[nH]c(-c3cc(S(=O)(=O)N4CCN(C)CC4)ccc3OCC)nc12 [sildenafil]
[1]
  outcome of primary screen (hit definition): not captured by the primary screen

## Oligomycin A
[1]; read-out: Stiffening IC50 (retention), stage V gametocytes NF54, 24 h, dose-response analysis, N/A = not active in dose-response analysis
  IC50: 500 nM

## CC(C)(C)NCc1ccc(Nc2ccnc3cc(Cl)ccc23)cc1O [N-tert-butylisoquine]
[3]
  Score (safety): 0
  Score (PK): 0
[1]; [4]
  IC50: 9450 nM
[2]; [5]
  IC50: 9.55 µM

## Cl[TeH]1(Cl)(Cl)OCCO1 [Ammonium trichlorotellurate]
[1]; [4]
  IC50: 2200 nM
[2]; [5]
  IC50: 13.7 µM

## CC[C@@H](C(=O)O)[C@@H]1O[C@@H]([C@@H](C)[C@H](O)[C@H](C)C(=O)[C@H](CC)[C@H]2O[C@]3(C=C[C@@H](O)[C@]4(CC[C@@](C)([C@H]5CC[C@](O)(CC)[C@H](C)O5)O4)O3)[C@H](C)C[C@@H]2C)[C@@H](C)C[C@@H]1C [Narasin]
[1]; [4]
  IC50: 43000 nM
[2]; Plasmodium falciparum
  IC50: 46 µM

## COc1cccc(CC(=O)N2CCC(n3c(C)nc4ccc(F)cc43)CC2)c1 [MMV020081]
[1]; [6]
  IC50: 1470 nM
[2]
  IC50: 29.3 µM

## C[C@]12CCC(=NOCCN)C[C@@H]1C(=O)C[C@@H]1[C@@H]2CC[C@]2(C)C(=O)CC[C@@H]12 [Istaroxime]
[1]; [4]
  IC50: 170 nM

## CCCN1CCC(c2ccc(Nc3nc(Nc4cc(F)ccc4C(N)=O)c4cc[nH]c4n3)c(OC)c2)CC1 [GSK1326255A]
[1]; [4]
  IC50: 480 nM
[2]; [5]
  IC50: 8.4 µM

## C/C=C1\NC(=O)[C@H]2CSSCC/C=C/[C@H](CC(=O)N[C@H](C(C)C)C(=O)N2)OC(=O)[C@H](C(C)C)NC1=O [Romidepsin]
[1]; [4]
  IC50: 5000 nM
[2]; Plasmodium falciparum
  IC50: 20 µM

## CCCC1(CCC)CCC2(CCN(CCCN(CC)CC)C2)CC1.O=C(O)/C=C\C(=O)O.O=C(O)/C=C\C(=O)O [Atiprimod dimaleate]
[3]
  Score (safety): 0
  Score (PK): 0
[2]
  IC50: 6.67 µM

## COC(=O)[C@@]12OC[C@]34[C@H]([C@@H](O)[C@@H]1O)[C@@]1(C)CC(=O)C(O)=C(C)[C@@H]1C[C@H]3OC(=O)[C@H](OC(=O)/C=C(\C)C(C)C)[C@@H]24 [Bruceantin]
[1]; [4]
  IC50: 20 nM
[2]; Plasmodium falciparum
  IC50: 0.16 µM

## COc1ccc(-c2ccc3ncc4c(c3c2)n(-c2ccc(N3CCNCC3)c(C(F)(F)F)c2)c(=O)n4C)cn1 [NVP-BGT226]
[3]
  Score (safety): 0
  Score (PK): 2 (Peak plasma concentration between 1/3 IC50 and IC50 (Score = 2))
[1]; [4]
  IC50: 1600 nM
[2]; [5]
  IC50: 0.013 µM

## CNCc1ccc(-c2cc(-c3nc(-c4ccc(S(=O)(=O)C(C)C)cc4)cnc3N)on2)cc1 [VE-822]
[1]; [4]
  IC50: 9500 nM
[2]; [5]
  IC50: 0.71 µM

## CCCCCCCCCCCCCC[n+]1ccc(C)cc1 [Myristyl-gamma picolinium chloride]
[1]; [6]
  IC50: 7200 nM
[2]
  IC50: 4.15 µM

## CC(=O)OC[C@H]1O[C@@H]([S-])[C@H](OC(C)=O)[C@@H](OC(C)=O)[C@@H]1OC(C)=O.CCP(CC)CC.[Au+] [Auranofin]
[3]
  Score (safety): 0
  Score (PK): 0
[1]; [6]
  IC50: 3500 nM
[2]
  IC50: 2.58 µM

## CC(C)C[C@H](NC(=O)[C@H](Cc1ccccc1)NC(=O)c1cnccn1)B(O)O [Bortezomib]
[2]; Plasmodium falciparum
  IC50: 2.06 µM

## CC(O)C(=O)O.Cc1[nH]c2ccccc2c1CCNCc1ccc(/C=C/C(=O)NO)cc1 [Panobinostat lactate]
[3]
  Score (safety): 0
  Score (PK): 0
[1]; [6]
  IC50: 220 nM
[2]
  IC50: 0.3 µM

## Cn1cc(CNCC2CCN(c3ncc(C(=O)NO)cn3)CC2)c2ccccc21 [Quisinostat]
[3]
  Score (safety): 0
  Score (PK): 0
[1]; [4]
  IC50: 3500 nM
[2]; [5]
  IC50: 5.2 µM

## COc1cc(N2CCN(C(C)C)CC2)ccc1Nc1nc(Nc2ccc(F)cc2C(N)=O)c2cc[nH]c2n1 [GSK1220512A]
[1]; [4]
  IC50: 2320 nM
[2]; [5]
  IC50: 17 µM

## CC[n+]1c(/C=C/c2ccc(N3CCCC3)cc2)cccc1/C=C/c1ccc(N2CCCC2)cc1.[I-] [Stilbazium iodide]
[3]
  Score (safety): 0
  Score (PK): 0
[1]; [6]
  IC50: 1570 nM
[2]
  IC50: 8.75 µM

## CCCCCCCCN=c1ccn(CCCCCCCCCCn2ccc(=NCCCCCCCC)cc2)cc1 [Octenidine]
[1]; [4]
  IC50: 1820 nM
[2]; [5]
  IC50: 1.25 µM

## CN(C)c1ccc2c(c1)Sc1cc(N(C)C)ccc1N2 [Leuco methylthioninium salt]
[3]
  Score (safety): 0
  Score (PK): 0
[2]
  IC50: 23.2 µM

## Gramicidin
[1]; [6]
  IC50: 70 nM
[2]; gametocytes
  killing IC50 in words: low nanomolar range
[2]
  IC50: 0.008 µM

## CN1CC(=O)N2[C@H](c3ccc4c(c3)OCO4)c3[nH]c4ccccc4c3C[C@@H]2C1=O [tadalafil]
[1]
  outcome of primary screen (hit definition): not captured by the primary screen

## C[CH2][Hg][S]c1ccccc1C(=O)[O-].[Na+] [Thimerosal]
[1]; [6]
  IC50: 930 nM
[2]
  IC50: 1.5 µM

## [O-][n+]1ccccc1SSc1cccc[n+]1[O-] [Bispyrithione]
[1]; [4]
  IC50: 2350 nM
[2]; Plasmodium falciparum
  IC50: 0.92 µM

## Bismuth ethanedithiol
[1]; [6]
  IC50: 1500 nM
[2]
  IC50: 1.3 µM
